Data on ten molecules can be found in ChEMBL document CHEMBL3045902, “Actions of imidacloprid, clothianidin and related neonicotinoids on nicotinic acetylcholine receptors of American cockroach neurons and their relationships with insecticidal potency” (J Pestic Sci, 2006).

Structures are written as SMILES. Active and inactive are the calls of the source. The rule behind the calls is not given here.

Series [1] is described as follows: Hydrophobicity, log K of the compound by HPLC. The series is classed as physicochemical.
Series [2] deals with T1, Nicotinic acetylcholine receptor alpha8 subunit (Periplaneta americana, UniProt H6TY12).
T1 sequence (H6TY12 whole entry): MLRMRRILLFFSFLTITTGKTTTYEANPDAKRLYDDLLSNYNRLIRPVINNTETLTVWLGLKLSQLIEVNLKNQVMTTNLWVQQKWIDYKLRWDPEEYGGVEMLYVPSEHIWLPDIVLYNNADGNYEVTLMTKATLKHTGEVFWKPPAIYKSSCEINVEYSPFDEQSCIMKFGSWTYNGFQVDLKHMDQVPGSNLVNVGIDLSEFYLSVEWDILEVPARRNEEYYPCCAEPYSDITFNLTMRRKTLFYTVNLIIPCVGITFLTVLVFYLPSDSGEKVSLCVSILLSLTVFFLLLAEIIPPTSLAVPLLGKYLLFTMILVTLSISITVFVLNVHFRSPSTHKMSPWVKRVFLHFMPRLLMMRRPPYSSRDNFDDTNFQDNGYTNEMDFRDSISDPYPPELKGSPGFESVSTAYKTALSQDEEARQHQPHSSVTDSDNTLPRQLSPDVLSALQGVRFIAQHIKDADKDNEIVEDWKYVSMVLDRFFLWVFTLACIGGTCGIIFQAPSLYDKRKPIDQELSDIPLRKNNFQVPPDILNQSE
The series is described as follows: Agonist activity at Periplaneta americana (American cockroach) nAChR in terminal abdominal ganglion assessed as assessed as inward current by tight-seal whole cell patch clamp method. It is filed as tissue-based. (In general: Patch clamp records ionic current or voltage across a cell membrane.)

In a further series the test system is Periplaneta americana. Put plainly: Insecticidal activity against Periplaneta americana (American cockroach) assessed as killing measured per insect at 25 to 28 degC for 24 hr in presence of piperonyl butoxide. The series is classed as functional.
The target in series [3] is T2, Nicotinic acetylcholine receptor alpha8 subunit (Periplaneta americana) (UniProt H6TY12).
T2 sequence (whole entry): T1 sequence (H6TY12 whole entry)
The series is described as follows: Agonist activity at Periplaneta americana (American cockroach) nAChR in terminal abdominal ganglion assessed as assessed as inward current by tight-seal whole cell patch clamp method relative to 100 uM ACh. The series is classed as tissue-based.

As to `O=[N+]([O-])NC1=NCCN1Cc1ccc(Cl)nc1` [IMIDACLOPRID], in series [1], the “log K” value is 0.23. Moreover, the EC50 in series [2] was 1.32 µM.
For `C/N=C(\NCc1ccc(Cl)nc1)N[N+](=O)[O-]`, the “log K” value in series [1] is given as 0.11. Also, the pMLD in the series on Periplaneta americana stood at 9.52. Besides, in series [3], the Imax stood at 0.31. In addition, the EC50 in series [2] was 1.86 µM.
For `O=[N+]([O-])/C=C1\NCCN1Cc1ccc(Cl)nc1` the same measures were 0.05, 10.1, 0.24 and 0.0724 µM.
For `O=[N+]([O-])/N=C1\NCCN1Cc1cnc(Cl)s1` [IMIDACLOTHIZ] the same measures were 0.28, 9.07, 0.3 and 1.58 µM.
On to `O=[N+]([O-])/N=C1\NCCN1Cc1ccc(Cl)nc1` [IMIDACLOPRID], for which the pMLD in the series on Periplaneta americana is 10.4. Further, in series [3], the Imax was found to be 0.11.
Take `CN/C(=C\[N+](=O)[O-])NCc1ccc(Cl)nc1`: the “log K” value in series [1] amounted to 0.16. Moreover, the pMLD with Periplaneta americana is 9.22. For the same molecule, the Imax in series [3] is 0.44. Also, the EC50 in series [2] was 0.0389 µM.
The like results for `CN/C(=N\[N+](=O)[O-])NCc1cnc(Cl)s1` [CLOTHIANIDINE] were, in that order, 0.17, 10.2, 0.68 and 1.58 µM.
For `CN/C(=C\[N+](=O)[O-])NCc1cnc(Cl)s1` the same measures were 0.14, 10.2, 0.47 and 0.0195 µM.
On to `CC(=O)OCC[N+](C)(C)C` [ACETYLCHOLINE], for which, in the series with Periplaneta americana, the pMLD result was “inactive”. In series [2], the EC50 was 11.5 µM.
As for `O=[N+]([O-])/C=C1\NCCN1Cc1cnc(Cl)s1`, in series [1], the “log K” value is recorded as 0.03. In the series with Periplaneta americana, the pMLD is 10.2. In addition, the Imax in series [3] came to 0.3. Moreover, the EC50 in series [2] was 0.0158 µM.

As usually defined, the EC50 is the midpoint of the concentration-response curve.
